Here are results for 23 molecules from US9527838B2, “2-pyridinecarboxamide derivatives, compositions containing such compounds, and methods of treatment” (priority 2012, dated 2016).

Each structure is given as a SMILES string.

This assay deals with Recombinant human liver glucokinase (Homo sapiens (Human), UniProt P35557). The experiment in a line: Glucokinase activation assay (G6PDH-coupled, Thio-NADH absorbance at 405 nm). It is filed as biochemical. The following applies: for EC50: 2.5 mM Glu, 30° C. From the text:
The glucokinase activity can, for instance, be determined without directly measuring glucose-6-phosphate by measuring the amount of Thio-NADH generated during the production of phosphogluconolactone from glucose-6-phosphate by a reporter enzyme glucose-6-phosphate dehydrogenase.
To test the exemplified compounds, the following assay was employed. Recombinant human liver glucokinase was expressed as a FLAG fusion protein in E. coli, and purified on […] M2 AFFINITY GEL (Sigma). The assay was carried out at 30° C. in a 96-well plate. In the plate was distributed 69 μl each of assay buffer (25 mM Hepes Buffer: pH=7.2, 2 mM MgCl2, 1 mM ATP, 0.5 mM TNAD, 1 mM dithiothreitol), to which was added 1 μl of a DMSO solution of the compound or DMSO as control. Then, 20 μl of pre-ice-cooled enzyme mixture (FLAG-GK, 20 U/ml G6PDH) was distributed thereto, to which was added 10 μl of 25 mM glucose as substrate to initiate the reaction (final glucose concentration=2.5 mM). After starting the reaction, the absorbance at 405 nm was measured every 30 seconds for 10 minutes to evaluate the compound based on the initial increase for 5 minutes. FLAG-GK was added so that the increase of absorbance after 5 minutes fell between 0.05 to 0.1 in the presence of 1% DMSO.
The OD values of the respective compounds were measured in the respective concentrations, wherein the OD value of DMSO as control is regarded as 100%.

Chain of Recombinant human liver glucokinase (P35557 other isoform, or with tags, fused parts or gaps): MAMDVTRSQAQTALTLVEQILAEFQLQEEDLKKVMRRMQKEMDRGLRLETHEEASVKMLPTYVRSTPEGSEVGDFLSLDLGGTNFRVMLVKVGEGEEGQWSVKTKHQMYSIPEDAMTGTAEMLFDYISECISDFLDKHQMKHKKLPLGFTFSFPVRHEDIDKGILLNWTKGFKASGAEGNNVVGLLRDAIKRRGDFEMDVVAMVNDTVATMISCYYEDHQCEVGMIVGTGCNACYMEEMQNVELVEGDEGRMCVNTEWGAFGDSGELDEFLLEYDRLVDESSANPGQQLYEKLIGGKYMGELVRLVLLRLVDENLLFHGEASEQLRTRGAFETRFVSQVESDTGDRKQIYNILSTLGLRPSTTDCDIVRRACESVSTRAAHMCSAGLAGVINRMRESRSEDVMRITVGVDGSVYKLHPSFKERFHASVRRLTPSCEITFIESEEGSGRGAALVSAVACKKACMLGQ

For the molecule `CCOC(=O)CSc1cnc(NC(=O)c2nc(Sc3nncn3C)ccc2Sc2ccc(OC)cc2)s1` [Example 1, Ethyl ({2-[({3-[(4-methoxyphenyl)sulfanyl]-6-[(4-methyl-4H-1,2,4-triazol-3-yl)sulfanyl]pyridin-2-yl}carbonyl)amino]-1,3-thiazol-5-yl}sulfanyl)acetate], the Emax (commonly the maximal effect, on the per cent scale that the assay sets) was found to be 471% and the 50% effective concentration (EC50) – broadly, the concentration needed to bring the measured effect to its halfway point – worked out at 0.0075 µM.

`CCOP(=O)(Cc1cnc(NC(=O)c2nc(Sc3nncn3C)ccc2Sc2ccc(F)cc2)s1)OCC` [Example 26, Diethyl ({2-[({3-[(4-fluorophenyl)sulfanyl]-6-[(4-methyl-4H-1,2,4-triazol-3-yl)sulfanyl]pyridin-2-yl}carbonyl)amino]-1,3-thiazol-5-yl}methyl)phosphonate]: the Emax was 377% and the concentration for a half-maximal effect (EC50) is 0.136 µM.

In the case of `CCOC(=O)CSc1cnc(NC(=O)c2nc(Sc3nncn3C)ccc2Sc2ccc(Cl)c(Cl)c2)s1` [Example 51, Ethyl ({2-[({3-[(3,4-dichlorophenyl)sulfanyl]-6-[(4-methyl-4H-1,2,4-triazol-3-yl)sulfanyl]pyridin-2-yl}carbonyl)amino]-1,3-thiazol-5-yl}sulfanyl)acetate], the Emax amounted to 479% and the EC50 is 0.0062 µM.

On to `Cn1cnnc1Sc1ccc(Sc2ccc(C(F)(F)F)cc2)c(C(=O)Nc2ncc(SCC(=O)O)s2)n1` [Example 44, [(2-{[(6-[(4-Methyl-4H-1,2,4-triazol-3-yl)sulfanyl]-3-{[4-(trifluoromethyl)phenyl]sulfanyl}pyridin-2-yl)carbonyl]amino}-1,3-thiazol-5-yl)sulfanyl]acetic acid], for which the Emax is 349% and the EC50 amounted to 0.0337 µM.

On to `O=C(O)Cc1nc(NC(=O)c2nc(Sc3ccccn3)ccc2Sc2ccc(F)cc2)sc1Cl` [Example 32, {5-Chloro-2-[({3-[(4-fluorophenyl)sulfanyl]-6-(pyridin-2-ylsulfanyl)pyridin-2-yl}carbonyl)amino]-1,3-thiazol-4-yl}acetic acid], for which the maximal effect (Emax) amounted to 643% and the concentration giving a half-maximal response (EC50) was found to be 0.0161 µM.

Turning to `COc1ccc(Sc2ccc(Sc3ccccn3)nc2C(=O)Nc2nc(CC(=O)O)cs2)cc1` [Example 17, {2-[({3-[(4-Methoxyphenyl)sulfanyl]-6-(pyridin-2-ylsulfanyl)pyridin-2-yl}carbonyl)amino]-1,3-thiazol-4-yl}acetic acid], the maximum response (Emax) amounted to 698% and the EC50 came to 0.106 µM.

Consider `CCOC(=O)CSc1cnc(NC(=O)c2nc(Sc3nncn3C)ccc2Sc2ccc(C(F)(F)F)cc2)s1` [Example 43, Ethyl [(2-{[(6-[(4-methyl-4H-1,2,4-triazol-3-yl)sulfanyl]-3-{[4-(trifluoromethyl)phenyl]sulfanyl}pyridin-2-yl)carbonyl]amino}-1,3-thiazol-5-yl)sulfanyl]acetate], for which the maximum response (Emax) was determined as 384% and the EC50 was 0.0283 µM.

Consider `O=C(O)CSc1cnc(NC(=O)c2nc(Sc3ccc(F)cc3)ccc2Sc2ccc(F)cc2)s1` [Example 28, ({2-[({3,6-Bis[(4-fluorophenyl)sulfanyl]pyridin-2-yl}carbonyl)amino]-1,3-thiazol-5-yl}sulfanyl)acetic acid], for which the maximum response (Emax) came out at 343% and the concentration for a half-maximal effect (EC50) turned out to be 0.172 µM.

For `Cn1cnnc1Sc1ccc(Sc2ccc(F)cc2)c(C(=O)Nc2nc(CC(=O)O)c(Cl)s2)n1` [Example 25, {5-Chloro-2-[({3-[(4-fluorophenyl)sulfanyl]-6-[(4-methyl-4H-1,2,4-triazol-3-yl)sulfanyl]pyridin-2-yl}carbonyl)amino]-1,3-thiazol-4-yl}acetic acid], the Emax worked out at 525% and the concentration giving a half-maximal response (EC50) is 0.0186 µM.

In the case of `O=C(O)Cc1csc(NC(=O)c2nc(Sc3ccccn3)ccc2Sc2ccc(F)cc2)n1` [Example 34, {2-[({3-[(4-Fluorophenyl)sulfanyl]-6-(pyridin-2-ylsulfanyl)pyridin-2-yl}carbonyl)amino]-1,3-thiazol-4-yl}acetic acid], the maximal effect (Emax) is 762% and the EC50 came out at 0.413 µM.

As for `CCOC(=O)Cc1nc(NC(=O)c2nc(Sc3nncn3C)ccc2Sc2ccc(C(F)(F)F)cc2)sc1Cl` [Example 41, Ethyl (5-chloro-2-{[(6-[(4-methyl-4H-1,2,4-triazol-3-yl)sulfanyl]-3-{[4-(trifluoromethyl)phenyl]sulfanyl}pyridin-2-yl)carbonyl]amino}-1,3-thiazol-4-yl)acetate], the Emax came to 296% and the EC50 amounted to 0.0189 µM.

Turning to `O=C(O)CSc1cnc(NC(=O)c2nc(Sc3ccccn3)ccc2Sc2ccc(F)cc2)s1` [Example 36, ({2-[({3-[(4-Fluorophenyl)sulfanyl]-6-(pyridin-2-ylsulfanyl)pyridin-2-yl}carbonyl)amino]-1,3-thiazol-5-yl}sulfanyl)acetic acid], the maximum response (Emax) came out at 514% and the EC50 came out at 0.034 µM.

With `Cn1cnnc1Sc1ccc(Sc2ccc(C(F)(F)F)cc2)c(C(=O)Nc2ncc(CCC(=O)O)s2)n1` [Example 49, 3-(2-{[(6-[(4-Methyl-4H-1,2,4-triazol-3-yl)sulfanyl]-3-{[4-(trifluoromethyl)phenyl]sulfanyl}pyridin-2-yl)carbonyl]amino}-1,3-thiazol-5-yl)propanoic acid], the maximal effect (Emax) was 549% and the EC50 came to 0.173 µM.

With `CCOP(=O)(Cc1cnc(NC(=O)c2nc(Sc3nncn3C)ccc2Sc2ccc(C(F)(F)F)cc2)s1)OCC` [Example 45, Diethyl [(2-{[(6-[(4-methyl-4H-1,2,4-triazol-3-yl)sulfanyl]-3-{[4-(trifluoromethyl)phenyl]sulfanyl}pyridin-2-yl)carbonyl]amino}-1,3-thiazol-5-yl)methyl]phosphonate], the maximal response (Emax) was found to be 273% and the EC50 was 0.35 µM.

As for `CCOC(=O)Cc1csc(NC(=O)c2nc(Sc3nncn3C)ccc2Sc2ccc(C(F)(F)F)cc2)n1` [Example 46, Ethyl (2-{[(6-[(4-methyl-4H-1,2,4-triazol-3-yl)sulfanyl]-3-{[4-(trifluoromethyl)phenyl]sulfanyl}pyridin-2-yl)carbonyl]amino}-1,3-thiazol-4-yl)acetate], the maximal effect (Emax) was found to be 466% and the EC50 came out at 0.0663 µM.

Take `COc1ccc(Sc2ccc(Sc3ccccn3)nc2C(=O)Nc2ncc(CCC(=O)O)s2)cc1` [Example 15, 3-{2-[({3-[(4-Methoxyphenyl)sulfanyl]-6-(pyridin-2-ylsulfanyl)pyridin-2-yl}carbonyl)amino]-1,3-thiazol-5-yl}propanoic acid]: the Emax is 645% and the half-maximal effective concentration (EC50) was determined as 0.14 µM.

In the case of `CCOC(=O)Cc1csc(NC(=O)c2nc(Sc3ccccn3)ccc2Sc2ccc(OC)cc2)n1` [Example 16, Ethyl {2-[({3-[(4-methoxyphenyl)sulfanyl]-6-(pyridin-2-ylsulfanyl)pyridin-2-yl}carbonyl)amino]-1,3-thiazol-4-yl}acetate], the Emax worked out at 524% and the half-maximal effective concentration (EC50) was 0.275 µM.

Regarding `CNC(=O)CSc1cnc(NC(=O)c2nc(Sc3nncn3C)ccc2Sc2ccc(OC)cc2)s1` [Example 3, 3-[(4-methoxyphenyl)sulfanyl]-N-(5-{[2-(methylamino)-2-oxoethyl]sulfanyl}-1,3-thiazol-2-yl)-6-[(4-methyl-4H-1,2,4-triazol-3-yl)sulfanyl]pyridine-2-carboxamide], the Emax turned out to be 572% and the EC50 turned out to be 0.0108 µM.

As to `CCOC(=O)C(C)(C)CSc1cnc(NC(=O)c2nc(Sc3nncn3C)ccc2Sc2ccc(OC)cc2)s1` [Example 5, Ethyl 3-({2-[({3-[(4-methoxyphenyl)sulfanyl]-6-[(4-methyl-4H-1,2,4-triazol-3-yl)sulfanyl]pyridin-2-yl}carbonyl)amino]-1,3-thiazol-5-yl}sulfanyl)-2,2-dimethylpropanoate], the maximal response (Emax) is 490% and the EC50 worked out at 0.0143 µM.

For the molecule `COc1ccc(Sc2ccc(Sc3ccccn3)nc2C(=O)Nc2nc(CC(=O)O)c(Cl)s2)cc1` [Example 13, {5-Chloro-2-[({3-[(4-methoxyphenyl)sulfanyl]-6-(pyridin-2-ylsulfanyl)pyridin-2-yl}carbonyl)amino]-1,3-thiazol-4-yl}acetic acid], the Emax is 584% and the EC50 was 0.009 µM.

As to `COC(=O)CCc1cnc(NC(=O)c2nc(Sc3nncn3C)ccc2Sc2ccc(OC)cc2)s1` [Example 7, Methyl 3-{2-[({3-[(4-methoxyphenyl)sulfanyl]-6-[(4-methyl-4H-1,2,4-triazol-3-yl)sulfanyl]pyridin-2-yl}carbonyl)amino]-1,3-thiazol-5-yl}propanoate], the maximum response (Emax) was determined as 550% and the EC50 was found to be 0.0234 µM.

Take `CCOC(=O)Cc1nc(NC(=O)c2nc(Sc3ccc(F)cc3)ccc2Sc2ccc(F)cc2)sc1Cl` [Example 29, Ethyl {2-[({3,6-bis[(4-fluorophenyl)sulfanyl]pyridin-2-yl}carbonyl)amino]-5-chloro-1,3-thiazol-4-yl}acetate]: the Emax was found to be 158%.

Turning to `COC(=O)CCc1cnc(NC(=O)c2nc(Sc3nncn3C)ccc2Sc2ccc(C(F)(F)F)cc2)s1` [Example 48, Methyl 3-(2-{[(6-[(4-methyl-4H-1,2,4-triazol-3-yl)sulfanyl]-3-{[4-(trifluoromethyl)phenyl]sulfanyl}pyridin-2-yl)carbonyl]amino}-1,3-thiazol-5-yl)propanoate], the Emax is 428% and the concentration giving a half-maximal response (EC50) is 0.0718 µM.
